Here are results for two compounds from the NIST ThermoML archive (doi:10.1021/je301014d).

Data set [1] is described as follows: Molar enthalpy of transition or fusion. Conditions: Crystal; DSC.
For data set [2] the following is noted: Crystal; DTA.

± gives the expanded uncertainty stated by the source.

Take `C[C@H]1OC(=O)[C@@H](C)OC1=O` [(3R,6R)-3,6-dimethyl-1,4-dioxane-2,5-dione]: in data set [1], the “Molar enthalpy of transition or fusion” value came to 3.87 ± 0.0956 kcal/mol. The Normal melting temperature in data set [2] came out at 97.23 ± 1.1 °C.

Regarding `C[C@@H]1OC(=O)[C@H](C)OC1=O` [(3S,6S)-3,6-dimethyl-1,4-dioxane-2,5-dione], the “Molar enthalpy of transition or fusion” value in data set [1] came out at 3.87 ± 0.0956 kcal/mol. Further, the Normal melting temperature in data set [2] was 97.82 ± 1.1 °C.
